# Values of other authors as cited in patent publication US20040072764A1, “Composition, in particular cosmetic, containing 7-hydroxy dhea and/or 7-keto dhea and at least an isoflavonoid” (priority 2000, published 2004).
# Assays:
# human keratinocytes = conditions: cited from WO 98/40074
# skin = conditions: on rats; cited from WO 00/28996
# [1] = cited from WO 98/40074
# fibroblasts = conditions: cited from WO 98/40074
smiles,measurement,setting,value
C[C@]12CC[C@H](O)CC1=C[C@@H](O)[C@@H]1[C@@H]2CC[C@]2(C)C(=O)CC[C@@H]12 [7α-hydroxy-DHEA],viability of the human keratinocytes,human keratinocytes,increase
same,collagen content of the skin,skin,increased
same,elastin content of the skin,skin,increased
same,thickness of the dermis,skin,increased
same,anti-free radical effects,[1],had anti-free radical effects
same,proliferation of the fibroblasts,fibroblasts,increase
